How the values were obtained:
FGFR1 = target: T1, FGFR1 (Homo sapiens, UniProt P11362); test: FGFR1-4 enzymology, HTRF method (FGFR1); type: biochemical; settings: FGFR1 enzyme 0.10 nM, substrate (TK) 1 µM, ATP 40 µM
T1 construct: purchased Carna 08-133
Description: (§1) The inhibitory effects of compounds on the enzymatic activities of FGFR1, 2, 3, and 4 were detected by using HTRF method (PerkinElmer, 62TK0PEJ). 2× Enzyme and 2× substrate /ATP mixed solutions were prepared using a buffer solution. The final concentrations of FGFR1 enzyme (Cama, 08-133), the substrate (TK), and ATP were 0.10 nM, 1 µM, and 40 µM, respectively; the final concentrations of FGFR2 (Carna, 08-134), the substrate (TK), and ATP were 0.08 nM, 1 µM, and 20 µM, respectively; the final concentrations of FGFR3 (Cama, 08-135), the substrate (TK), and ATP were 0.30 nM, 1 µM, and 50 µM, respectively; and the final concentrations of FGFR4 (Carna, 08-136), the substrate (TK), and ATP were 10 nM, 1 µM, and 50 µM, respectively. The compound stock solution was diluted to 100× working concentration using DMSO. 50 nL/well of the compound was transferred to a 384-well plate using Echo, with 2 replicate wells per concentration. 2.5 µL/well of 2× kinase solution was added to reaction wells, mixed and incubated at 25°C for 10 min. 2.5 µL/well of 2× substrate/ATP solution was added to reaction wells and incubated at 25°C for 50 min. 2× Streptavidin-XL665/Cryptate-antibody mixed solution was prepared using a detection buffer solution (containing EDTA). 5 µL/well of a kinase detection reagent was added to the reaction wells and incubated at 25°C for 60 min. Fluorescence signals at 620 nm (Cryptate) and 665 nm (XL665) were read by a multifunctional microplate reader. IC50 (median inhibitory concentration) of the compound was calculated using the GraphPad nonlinear fitting formula, Y=Bottom + (Top-Bottom)/(1+10^((LogIC50-X) ×HillSlope)), in which X: the logarithmic value of the concentration of the compound; and Y: the inhibition rate of the compound (% inhibition).

FGFR3 = target: T2, FGFR3 (Homo sapiens, UniProt P22607); test: FGFR1-4 enzymology, HTRF method (FGFR3); type: biochemical; settings: FGFR3 0.30 nM, substrate (TK) 1 µM, ATP 50 µM
T2 construct: purchased Carna 08-135
Description: as §1

FGFR4 = target: T3, FGFR4 (Homo sapiens, UniProt P22455); test: FGFR1-4 enzymology, HTRF method (FGFR4); type: biochemical; settings: FGFR4 10 nM, substrate (TK) 1 µM, ATP 50 µM
T3 construct: purchased Carna 08-136
Description: as §1

FGFR2 = target: T4, FGFR2 (Homo sapiens, UniProt P21802); test: FGFR1-4 enzymology, HTRF method (FGFR2); type: biochemical; settings: FGFR2 0.08 nM, substrate (TK) 1 µM, ATP 20 µM
T4 construct: purchased Carna 08-134
Description: as §1

FGFR3 K650M = FGFR3 K650M (Homo sapiens, UniProt P22607, K650M); test: FGFR2 and FGFR3 mutant enzymology, HTRF method (FGFR3 K650M); type: biochemical; settings: kinase 0.10 nM, substrate 1 µM, ATP 12 µM
Description: (§2) The inhibitory effects of the compounds on the enzymatic activities of FGFR2 and FGFR3 mutants by using HTRF method (PerkinElmer, 62TK0PEJ). 2× Enzyme and 2× substrate /ATP mixed solutions were prepared using a buffer solution.
(§3) The compound stock solution was diluted to 100× working concentration using DMSO. 50 nL/well of the compound was transferred to a 384-well plate using Echo, with 2 replicate wells per concentration. 2.5 µL/well of 2× kinase solution was added to reaction wells, mixed and incubated at 25°C for 10 min. 2.5 µL/well of 2× substrate/ATP solution was added to reaction wells and incubated at 25°C for 50 min. 2× Streptavidin-XL665/Cryptate-antibody mixed solution was prepared using a detection buffer solution (containing EDTA). 5 µL/well of a kinase detection reagent was added to the reaction wells and incubated at 25°C for 60 min. Fluorescence signals at 620 nm (Cryptate) and 665 nm (XL665) were read by a multifunctional microplate reader. According to the test results, the inhibition rate was calculated. […] IC50 (median inhibitory concentration) of the compound was calculated using the GraphPad nonlinear fitting formula, Y = Bottom + (Top-Bottom)/(1+10^((LogIC50-X) ×HillSlope)), in which X: the logarithmic value of the concentration of the compound; and Y: the inhibition rate of the compound (% inhibition).

FGFR2 V564F = FGFR2 V564F (Homo sapiens, UniProt P21802, V564F); test: FGFR2 and FGFR3 mutant enzymology, HTRF method (FGFR2 V564F); type: biochemical; settings: kinase 0.02 nM, substrate 1 µM, ATP 15 µM
Description: as §2, §3

FGFR2 V564I = FGFR2 V564I (Homo sapiens, UniProt P21802, V564I); test: FGFR2 and FGFR3 mutant enzymology, HTRF method (FGFR2 V564I); type: biochemical; settings: kinase 0.03 nM, substrate 1 µM, ATP 20 µM
Description: as §2, §3

[1] = Pharmacokinetic study on mouse brain tissue (plasma/cerebrospinal fluid/brain tissue); type: in vivo; settings: ICR mice, intragastric administration 10 mg/kg; for Tmax / half-life: male, mouse, po
Description: An appropriate amount of the test substance was weighed and formulated into a 1 mg/mL transparent and clear solution using 10% DMSO + 5% HS-15 + 85% Saline for intragastric administration. 24 healthy male ICR mice (Charles River, SPF grade) were taken, with 3 animals per time point. Blood samples were collected at 15 min, 0.5, 1, 2, 4, 6, 8, and 24 h after intragastric administration of the test substance (10 mg/kg). The blood sample was anticoagulated with EDTA-K2 and then centrifuged at 6000 g at 4°C for 5 min to separate plasma. The plasma was stored at - 70°C for testing. After blood collection, the animal was sacrificed to collect cerebrospinal fluid, which was stored at -70°C for testing. The brain tissue was rinsed with ice-cold normal saline to remove the residual blood, blotted dry with absorbent paper, and then stored at -70°C for testing. The drug concentration of the specified compound in the plasma/cerebrospinal fluid/brain tissue was determined using LC-MS/MS method (with Gliclazide as an internal standard). The main pharmacokinetic parameters were calculated using a Winnolin 8.3 noncompartmental model.

FGFR3 V555M = FGFR3 V555M (Homo sapiens, UniProt P22607, V555M); test: FGFR2 and FGFR3 mutant enzymology, HTRF method (FGFR3 V555M); type: biochemical; settings: kinase 0.55 nM, substrate 1 µM, ATP 20 µM
Description: as §2, §3

FGFR2 N549H = FGFR2 N549H (Homo sapiens, UniProt P21802, N549H); test: FGFR2 and FGFR3 mutant enzymology, HTRF method (FGFR2 N549H); type: biochemical; settings: kinase 0.02 nM, substrate 1 µM, ATP 9 µM
Description: as §2, §3

[2] = Pharmacokinetic study in rats in vivo; settings: SD rats; for F: intragastric 5 mg/kg versus intravenous 1 mg/kg; for AUC0-t / Cmax / half-life: male, rat, po, Plasma, intragastric administration 5 mg/kg
Description: An appropriate amount of the test substance was weighed and formulated into a 0.5 mg/mL transparent and clear solution using 10% DMSO + 5% HS-15 + 85% Saline for intravenous administration. The test substance was formulated into a 1 mg/mL uniform suspension using 10% DMSO + 5% HS-15 + 85% Saline for intragastric administration. 6 healthy male SD rats (Charles River, SPF grade) were taken, with 3 animals assigned to the intravenous group and three to the intragastric group, respectively. With 3 animals per time point, blood samples were collected via the jugular vein. Blood samples were collected at 5 min, 15 min, 0.5, 1, 2, 4, 8, and 24 h after intravenous administration of the test substance (1 mg/kg), and blood samples were collected at 15 min, 0.5, 1, 2, 4, 6, 8, and 24 h after intragastric administration of the test substance (5 mg/kg). After anticoagulation with EDTA-K2, the blood samples were centrifuged at 6000 g at 4°C for 5 min to separate plasma, and all plasma samples were stored at -70°C for testing. The drug concentration of the test substance in plasma was determined by LC-MS/MS method (with gliclazide as an internal standard), and the main pharmacokinetic parameters were calculated by Winnolin 8.3 non-compartment model. The intragastric administration results are as follows: […]

T4 sequence (P21802 22-821): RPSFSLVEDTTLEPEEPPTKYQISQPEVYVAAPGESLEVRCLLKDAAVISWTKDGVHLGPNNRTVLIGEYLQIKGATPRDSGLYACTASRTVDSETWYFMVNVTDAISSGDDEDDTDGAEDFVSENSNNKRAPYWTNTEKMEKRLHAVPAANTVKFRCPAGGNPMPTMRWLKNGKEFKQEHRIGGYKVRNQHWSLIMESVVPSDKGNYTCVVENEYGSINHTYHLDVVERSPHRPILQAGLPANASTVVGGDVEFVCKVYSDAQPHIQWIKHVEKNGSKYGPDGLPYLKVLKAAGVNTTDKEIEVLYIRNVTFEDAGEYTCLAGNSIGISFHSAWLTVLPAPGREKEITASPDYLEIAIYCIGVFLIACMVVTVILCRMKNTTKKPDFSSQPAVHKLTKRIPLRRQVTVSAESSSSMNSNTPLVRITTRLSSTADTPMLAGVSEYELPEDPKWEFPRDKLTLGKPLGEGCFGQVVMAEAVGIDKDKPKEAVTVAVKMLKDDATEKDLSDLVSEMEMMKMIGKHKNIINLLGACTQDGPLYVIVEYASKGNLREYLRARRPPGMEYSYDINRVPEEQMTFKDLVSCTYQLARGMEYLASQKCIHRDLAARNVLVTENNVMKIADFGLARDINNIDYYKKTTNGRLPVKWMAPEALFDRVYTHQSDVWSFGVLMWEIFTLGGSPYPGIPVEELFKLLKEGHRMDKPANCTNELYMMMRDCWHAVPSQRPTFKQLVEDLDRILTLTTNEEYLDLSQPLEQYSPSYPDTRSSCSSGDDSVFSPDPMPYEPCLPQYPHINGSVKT
T3 sequence (P22455 22-802): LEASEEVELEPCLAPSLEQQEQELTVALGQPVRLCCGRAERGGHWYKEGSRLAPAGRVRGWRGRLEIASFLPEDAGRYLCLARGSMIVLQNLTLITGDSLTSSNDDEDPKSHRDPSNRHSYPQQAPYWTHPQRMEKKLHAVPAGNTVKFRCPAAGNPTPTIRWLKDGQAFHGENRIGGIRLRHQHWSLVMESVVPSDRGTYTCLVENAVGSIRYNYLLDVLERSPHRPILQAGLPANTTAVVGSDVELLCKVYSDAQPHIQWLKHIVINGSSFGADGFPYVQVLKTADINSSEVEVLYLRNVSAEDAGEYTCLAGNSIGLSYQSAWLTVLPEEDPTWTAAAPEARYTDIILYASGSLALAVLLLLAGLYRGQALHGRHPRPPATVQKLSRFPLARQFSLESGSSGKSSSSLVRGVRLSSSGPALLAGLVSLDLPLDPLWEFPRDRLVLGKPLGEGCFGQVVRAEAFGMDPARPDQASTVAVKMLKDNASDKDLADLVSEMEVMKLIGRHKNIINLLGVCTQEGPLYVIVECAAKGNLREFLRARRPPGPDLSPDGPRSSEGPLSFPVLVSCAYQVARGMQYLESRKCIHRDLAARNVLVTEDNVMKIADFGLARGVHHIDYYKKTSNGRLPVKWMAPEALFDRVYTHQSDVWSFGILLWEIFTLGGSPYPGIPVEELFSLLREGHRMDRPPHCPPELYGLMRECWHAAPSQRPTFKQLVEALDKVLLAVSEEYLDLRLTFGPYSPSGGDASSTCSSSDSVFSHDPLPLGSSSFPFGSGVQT
T2 sequence (P22607 23-806): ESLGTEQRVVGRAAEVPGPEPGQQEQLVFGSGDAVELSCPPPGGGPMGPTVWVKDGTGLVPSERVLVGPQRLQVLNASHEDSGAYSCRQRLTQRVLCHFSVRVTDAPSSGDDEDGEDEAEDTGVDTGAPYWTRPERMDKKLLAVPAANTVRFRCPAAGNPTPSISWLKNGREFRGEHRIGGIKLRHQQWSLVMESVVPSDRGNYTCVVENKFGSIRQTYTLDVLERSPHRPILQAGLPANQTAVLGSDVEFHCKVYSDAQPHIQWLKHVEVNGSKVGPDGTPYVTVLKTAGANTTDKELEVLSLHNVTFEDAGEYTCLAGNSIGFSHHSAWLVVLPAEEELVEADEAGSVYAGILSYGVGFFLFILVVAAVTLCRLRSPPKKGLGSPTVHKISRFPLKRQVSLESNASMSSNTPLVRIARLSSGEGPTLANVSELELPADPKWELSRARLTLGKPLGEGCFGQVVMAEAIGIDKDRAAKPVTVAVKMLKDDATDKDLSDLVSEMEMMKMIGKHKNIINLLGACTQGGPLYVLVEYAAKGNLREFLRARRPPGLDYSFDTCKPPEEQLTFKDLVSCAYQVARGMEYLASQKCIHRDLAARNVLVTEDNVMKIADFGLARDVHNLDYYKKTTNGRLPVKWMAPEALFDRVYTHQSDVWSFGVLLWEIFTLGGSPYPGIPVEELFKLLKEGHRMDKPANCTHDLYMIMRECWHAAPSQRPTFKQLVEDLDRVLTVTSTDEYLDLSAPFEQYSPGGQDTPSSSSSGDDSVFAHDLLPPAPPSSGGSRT
T1 sequence (P11362 22-822): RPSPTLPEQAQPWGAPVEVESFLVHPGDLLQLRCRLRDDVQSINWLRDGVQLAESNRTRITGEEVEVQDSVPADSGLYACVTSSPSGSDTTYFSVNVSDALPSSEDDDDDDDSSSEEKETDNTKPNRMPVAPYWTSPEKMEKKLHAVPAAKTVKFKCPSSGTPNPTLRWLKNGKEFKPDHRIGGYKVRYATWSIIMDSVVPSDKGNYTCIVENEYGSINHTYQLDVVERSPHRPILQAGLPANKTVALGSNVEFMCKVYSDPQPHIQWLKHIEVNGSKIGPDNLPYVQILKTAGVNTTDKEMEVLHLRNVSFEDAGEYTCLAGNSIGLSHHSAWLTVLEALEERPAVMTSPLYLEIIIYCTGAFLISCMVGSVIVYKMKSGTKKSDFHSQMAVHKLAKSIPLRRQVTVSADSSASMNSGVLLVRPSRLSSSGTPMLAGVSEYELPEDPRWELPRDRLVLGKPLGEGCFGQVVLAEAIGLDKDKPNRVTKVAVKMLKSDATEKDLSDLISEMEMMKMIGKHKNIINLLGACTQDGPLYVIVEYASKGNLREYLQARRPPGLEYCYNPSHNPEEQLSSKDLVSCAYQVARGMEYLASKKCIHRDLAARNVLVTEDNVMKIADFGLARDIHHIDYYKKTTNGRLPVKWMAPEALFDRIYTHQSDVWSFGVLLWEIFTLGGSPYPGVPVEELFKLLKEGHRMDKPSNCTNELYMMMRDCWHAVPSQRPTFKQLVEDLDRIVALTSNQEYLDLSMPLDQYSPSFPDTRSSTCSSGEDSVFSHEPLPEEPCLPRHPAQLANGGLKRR
Chain of FGFR3 V555M (P22607 23-806 V555M): as the sequence (P22607 23-806) above, with V533M counted along it
Chain of FGFR2 V564F (P21802 22-821 V564F): as the sequence (P21802 22-821) above, with V543F counted along it
Chain of FGFR2 N549H (P21802 22-821 N549H): as the sequence (P21802 22-821) above, with N528H counted along it
Chain of FGFR2 V564I (P21802 22-821 V564I): as the sequence (P21802 22-821) above, with V543I counted along it
Chain of FGFR3 K650M (P22607 23-806 K650M): as the sequence (P22607 23-806) above, with K628M counted along it

Row | Compound | IC50 (FGFR1) | IC50 (FGFR3) | IC50 (FGFR4) | IC50 (FGFR2) | AUC0-t ([1]; Brain tissue) | AUC0-t ([1]; Cerebrospinal fluid) | AUC0-t ([1]; Plasma) | Tmax ([1]; Brain tissue) | half-life ([1]; Brain tissue) | Tmax ([1]; Cerebrospinal fluid) | Tmax ([1]; Plasma) | half-life ([1]; Plasma) | F [2] | AUC0-t [2] | Cmax [2] | half-life [2] | also measured
1 | C=C(C(=O)Nc1ccc(-c2c(-c3ccc(Oc4nccc(C)n4)c(F)c3)c3c(N)ncnc3n2C)cn1)C1CC1 [Compound 2, N-(5-(4-amino-5-(3-fluoro-4-((4-methylpyrimidin-2-yl)oxy)phenyl)-7-methyl-7H-pyrrolo[2,3-d]pyrimidin-6-yl)pyridin-2-yl]-2-cyclopropylacrylamide] | 407 nM | 149 nM | > 1000 nM | 12 nM |  |  |  |  |  |  |  |  |  |  |  |  | 
2 | C=C(C(=O)Nc1ccc(-c2c(-c3ccc(Oc4nccc(C)n4)c(F)c3)c3c(N)ncnc3n2C)c(F)c1)C1CC1 [Compound 5, N-(4-(4-amino-5-(3-fluoro-4-((4-methylpyrimidin-2-yl)oxy)phenyl)-7-methyl-7H-pyrrolo[2,3-d]pyrimidin-6-yl)-3-fluorophenyl)-2-cyclopropylacrylamide] | 550 nM | 246 nM | > 1000 nM | 7.3 nM |  |  |  |  |  |  |  |  |  |  |  |  | 
3 | C=C(C(=O)Nc1ccc(-c2c(-c3ccc(Oc4cccc(Cl)n4)c(F)c3)c3c(N)ncnc3n2C)cc1)C1CC1 [Compound 9, N-(4-(4-amino-5-(4-((6-chloropyridin-2-yl)oxy)-3-fluorophenyl)-7-methyl-7H-pyrrolo[2,3-d]pyrimidin-6-yl)phenyl)-2-cyclopropylacrylamide] | > 1000 nM | > 1000 nM | > 1000 nM | 65.5 nM |  |  |  |  |  |  |  |  |  |  |  |  | 
4 | C=C(C(=O)Nc1ccc(-c2c(-c3ccc(Oc4nccc(C)n4)c(F)c3)c3c(N)ncnc3n2C)c(Cl)c1)C1CC1 [Compound 4, N-(4-(4-amino-5-(3-fluoro-4-((4-methylpyrimidin-2-yl)oxy)phenyl)-7-methyl-7H-pyrrolo[2,3-d]pyrimidin-6-yl)-3-chlorophenyl)-2-cyclopropylacrylamide] | 165 nM | 64.2 nM | > 1000 nM | 1.7 nM | 277 h*ng/mL or h*ng/g | 9 h*ng/mL or h*ng/g | 21966 h*ng/mL or h*ng/g | 1 h | 1.7 h | 1 h | 0.5 h | 1.8 h | 24.2% | 787 ng·h/mL | 273 ng/mL | 0.9 h | IC50 (FGFR3 K650M): 271 nM; IC50 (FGFR2 V564F): 0.5 nM; IC50 (FGFR2 V564I): 15 nM; IC50 (FGFR3 V555M): 120 nM; IC50 (FGFR2 N549H): 5.2 nM
5 | C=C(C(=O)Nc1ccc(-c2c(-c3ccc(Oc4nccc(C)n4)c(F)c3)c3c(N)ncnc3n2C)cc1)C1CC1 [Compound 1, N-(4-(4-amino-5-(3-fluoro-4-((4-methylpyrimidin-2-yl)oxy)phenyl)-7-methyl-7H-pyrrolo[2,3-d]pyrimidin-6-yl)phenyl]-2-cyclopropylacrylamide] | > 1000 nM | > 1000 nM | > 1000 nM | 23.8 nM | 524 h*ng/mL or h*ng/g | 59 h*ng/mL or h*ng/g | 50857 h*ng/mL or h*ng/g | 1 h | 3 h | 0.5 h | 1 h | 3.1 h | 90.8% | 3190 ng·h/mL | 938 ng/mL | 1.9 h | half-life ([1]; Cerebrospinal fluid): 6.3 h
